Key:
TLR-4, CD11b = assay: Gene expression of inflammatory markers in brain tissue (qPCR); type: in vivo, BALBc mice; settings: oral gavage 1×10^9 CFU for 6 consecutive days
Method: BALBc (Envigo, UK) adult male mice were group housed under a 12 h light-dark cycle; standard rodent chow and water were available ad libitum. All experiments were performed in accordance with European guidelines following approval by University College Cork Animal Ethics Experimentation Committee. Animals were 8 weeks old at the start of the experiment.
Animals were allowed to habituate to their holding room for one week after arrival into the animal unit. They receive oral gavage (200 μL dose) of live biotherapeutics at a dose of 1×10^9 CFU for 6 consecutive days between 15:00 and 17:00. On day 7, the animals are decapitated, and tissues are harvested for experimentation. […]
Total RNA was extracted using the mirVana™ miRNA Isolation kit (Ambion/Llife technologies, Paisley, UK) and DNase treated (Turbo DNA-free, Ambion/life technologies) according to the manufacturers recommendations. RNA was quantified using NanoDrop™ spectrophotometer (Thermo Fisher Scientific Inc., Wilmington, Del., USA) according to the manufacturer's instructions. RNA quality was assessed using the Agilent Bioanalyzer (Agilent, Stockport, UK) according to the manufacturer's procedure and an RNA integrity number (RIN) was calculated. […] Quantitative PCR was carried out using probes (6 carboxy fluorescein—FAM) designed by Applied Biosystems to mouse specific targeted genes, while using β-actin as an endogenous control. […]

MAP2 = MAP2 expression in SH-SY5Y cells (qPCR, immunostaining, immunoblotting); type: cell-based; settings: undifferentiated SH-SY5Y cells, 10% bacterial supernatant, vs untreated cells
Method: SH-SY5Y were plated in 10 cm petri dishes a density of 2×10^6 cells. After 24 h cells were treated in differentiation medium (growth medium containing 1% FBS without RA) with 10% bacteria supernatants or YCFA+, 10 uM RA, 200 uM hexanoic acid or 200 uM valproic acid, for 17 hrs. There after representative images were taken using phase contrast EVOS XL core microscope at 40×10.65 magnification. Cells were collected, and total RNA was isolated according to RNeasy mini kit protocol (Qiagen). cDNAs were made using the high capacity cDNA reverse transcription kit (Applied Biosystems). Gene expression was measured using qPCR. GAPDH was used as internal control. Fold change was calculated according to the 2^(−ΔΔct) method.
Cells were seeded onto 8-well chamber slides (Marienfeld Laboratory Glassware) at 5×10^4 cells/well overnight and were treated with 10% bacterial supernatant for 24 h. […]
SH-SY5Y cells cultured under the indicated conditions described above, treated with MRx0029 for 24 h and then lysed in RIPA buffer containing cocktail of protease inhibitors (Roche Diagnostics, UK). […] The blots were then incubated with the appropriate horseradish peroxidase (HRP)-conjugated secondary antibody, and proteins were detected by chemiluminescence detection kit (Pierce Biotechnology, Rockford, Ill.). […]

Megasphaera massiliensis MRx0029
expression of CD11b in the amygdala (TLR-4, CD11b): increased expression of CD11b
expression of TLR-4 in the amygdala (TLR-4, CD11b): significantly increased the expression of TLR-4
expression of MAP2 (MAP2): significantly increased the expression of MAP2
